Reference: patent publication US7547519B2, “Methods of diagnosing multidrug resistant tuberculosis” (The United States of America as represented by the …, priority 2000, dated 2009)
Converted amounts (≈) assume the structure as drawn.

Tests used:
[1] = tested on: MTb patient isolates; format: cell-based, Mycobacterium tuberculosis
[2] = tested on: MTb H37Rv
[3] = tested on: MTb H37Rv; assay: microbe, parasite or virus in culture; settings: Mycobacterium tuberculosis

Structure (SMILES)	isolates cross-resistant [1]	susceptibility of isolates without mutations in EtaA, EtaR or promoter regions [1]	growth of transformants [2]	MIC [3] [µg/mL]
CC(C)CCOc1ccc(NC(=S)Nc2ccc(OCCC(C)C)cc2)cc1 [thiocarlide]	thirteen out of fourteen	–	–	–
CCc1cc(C(N)=S)ccn1 [ETA, ethionamide]	Eleven of fourteen	fully sensitive	grew as a lawn at 2.5 and 5 μg/ml ETA	2.5 to 5 (≈ 15 to 30.1 µM)
